Laboratory results reported in US11130741B2 (Bioimics AB, priority 2016, dated 2021).
In brackets after ≈: the same amount, converted by molar mass.

Experiments:
[1] = test system: E. coli RNase P RNA, M1 RNA; assay: Inhibition of bacterial RNase P activity, IC50 determination (cleavage of pATSerUG by M1 RNA); type: biochemical; conditions: NI = No inhibition
[2] = test system: Escherichia coli (ATCC25922); assay: MIC, broth microdilution (CLSI), Escherichia coli ATCC25922; conditions: ATCC25922, read-out: E. coli MIC, Table 15, NI = No inhibition
[3] = test system: Staphylococcus aureus (ATCC25923); assay: MIC, broth microdilution (CLSI), Staphylococcus aureus ATCC25923; conditions: ATCC25923, read-out: S. aureus ("Clinical") MIC

MIC [2]	MIC [3]	IC50 [1]	SMILES	IC50 ([1]; trifluoroacetic Acid Salt)
> 100 µg/mL	6 µg/mL (≈ 14.9 µM)	> 100 µM	Nc1cccc(C(=O)Nc2cc(C(F)(F)F)cc3c2Nc2ccccc2S3)c1 [compound 134, 3-amino-N-(3-(trifluoromethyl)-10H-phenothiazin-1-yl)benzamide]	
> 100 µg/mL	13 µg/mL (≈ 31.3 µM)	> 100 µM	CN(C)CCCN1c2ccccc2Sc2cc(-c3cc4cc(O)ccc4[nH]3)ccc21 [compound 152, 2-(10-(3-(dimethylamino)propyl)-10H-phenothiazin-3-yl)-1H-indol-5-ol]	
> 100 µg/mL	64 µg/mL (≈ 141 µM)	> 100 µM	CC(N)CC(=O)Nc1cc(C(F)(F)F)cc2c1N(CCCN(C)C)c1ccccc1S2 (stereo not drawn) [compound 90, 3-amino-N-(10-(3-(dimethylamino)propyl)-3-(trifluoromethyl)-10H-phenothiazin-1-yl)butanamide]	
> 100 µg/mL	13 µg/mL (≈ 32.5 µM)	160 µM	CN(C)CCCN1c2ccccc2Sc2cc(-c3nc4ccccc4[nH]3)ccc21 [compound 137, 3-(3-(1H-benzo[d]imidazol-2-yl)-10H-phenothiazin-10-yl)-N,N-dimethylpropan-1-amine]	
32 µg/mL (≈ 81.3 µM)	8 µg/mL (≈ 20.3 µM)	> 100 µM	NC1CCC(CNc2cc(C(F)(F)F)cc3c2Nc2ccccc2S3)CC1 (stereo not drawn) [compound 108, N-((4-aminocyclohexyl)methyl)-3-(trifluoromethyl)-10H-phenothiazin-1-amine]	
13 µg/mL (≈ 33 µM)	3 µg/mL (≈ 7.62 µM)	42 µM	N[C@@H]1CCC[C@@H](CNc2cc(C(F)(F)F)cc3c2Nc2ccccc2S3)C1 [compound 171, N-(((1R,3R)-3-aminocyclohexyl)methyl)-3-(trifluoromethyl)-10H-phenothiazin-1-amine]	
13 µg/mL (≈ 31.1 µM)	7 µg/mL (≈ 16.7 µM)	17 µM	NCCN1CCC(c2nc3cc(C(F)(F)F)cc4c3n2-c2ccccc2S4)CC1 [compound 239, 2-(4-(4-(Trifluoromethyl)imidazo[4,5,1-kl]phenothiazin-1-yl)piperidin-1-yl)ethanamine]	
23 µg/mL (≈ 62.9 µM)	6 µg/mL (≈ 16.4 µM)	27 µM	FC(F)(F)c1cc(NC2CCCNC2)c2c(c1)Sc1ccccc1N2 (stereo not drawn) [compound 172, N-(piperidin-3-yl)-3-(trifluoromethyl)-10H-phenothiazin-1-amine]	
26 µg/mL (≈ 63.8 µM)	13 µg/mL (≈ 31.9 µM)	17 µM	N[C@H]1CCC[C@@H](C(=O)Nc2cc(C(F)(F)F)cc3c2Nc2ccccc2S3)C1 [compound 118, (1R,3S)-3-amino-N-(3-(trifluoromethyl)-10H-phenothiazin-1-yl)cyclohexane-carboxamide]	
7 µg/mL (≈ 16.6 µM)	7 µg/mL (≈ 16.6 µM)	> 100 µM	NCCN1CCCC(CNc2cc(C(F)(F)F)cc3c2Nc2ccccc2S3)C1 (stereo not drawn) [compound 220, N-((1-(2-aminoethyl)piperidin-3-yl)methyl)-3-(trifluoromethyl)-10H-phenothiazin-1-amine]	
21 µg/mL (≈ 63.3 µM)	5 µg/mL (≈ 15.1 µM)	11 µM	Clc1cc(NC2CCNCC2)c2c(c1)Sc1ccccc1N2 [compound 184, 3-chloro-N-(piperidin-4-yl)-10H-phenothiazin-1-amine]	
50 µg/mL (≈ 127 µM)	25 µg/mL (≈ 63.5 µM)	109 µM	O=C(Nc1cc(C(F)(F)F)cc2c1Nc1ccccc1S2)C1CCNCC1 [compound 207, N-(3-(trifluoromethyl)-10H-phenothiazin-1-yl)piperidine-4-carboxamide]	
> 100 µg/mL	3 µg/mL (≈ 6.98 µM)	> 100 µM	COc1ccc2[nH]c(-c3ccc4c(c3)Sc3ccccc3N4CCCN(C)C)cc2c1 [compound 144, 3-(3-(5-methoxy-1H-indol-2-yl)-10H-phenothiazin-10-yl)-N,N-dimethylpropan-1-amine]	

SMILES	MIC [2]	MIC [3]	IC50 [1]	IC50 ([1]; trifluoroacetic Acid Salt)
FC(F)(F)c1cc(NC2CCNCC2)c2c(c1)Sc1cc(-c3cc4ccccc4[nH]3)ccc1N2.O=C(O)C(F)(F)F [compound 212, 7-(1H-indol-2-yl)-N-(piperidin-4-yl)-3-(trifluoromethyl)-10H-phenothiazin-1-amine trifluoroacetic Acid Salt]	> 100 µg/mL	19 µg/mL		5 µM
